Results from article PMC12419922, “Myristoylated Cathelicidin-DM Fused With ANG1-7: A Novel Self-Assembling Antimicrobial Peptide for the Treatment and Mechanism of Diabetic Infected Wounds” (Journal of Diabetes Research, 2025).
Where no end group is shown, it is not given here. The star is where a group is joined. Myristoyl = CCCCCCCCCCCCCC(=O)*

Key:
HUVECs [1] = test: ELISA of IL-6 and TNF-α in culture supernatant; type: cell-based, human; details: HG + LPS 24 h
Experimental: The HUVECs were seeded at 1 × 10^4 cells/well and cultured in 96-well plates. Following the indicated treatments, the levels of IL-6 and TNF-α in culture media were analyzed using ELISA according to the method of the kit. The experiments were repeated three times.

S. aureus (ATCC 25923) = test: MIC and growth inhibition, broth microdilution; type: cell-based, Staphylococcus aureus
Experimental: (§1) The minimum inhibitory concentrations (MICs) of DM and MYR-DM-ANG1-7 were determined using the broth microdilution method. E. coli (ATCC 25922) and S. aureus (ATCC 25923) were cultured overnight in Mueller–Hinton broth (MHB) at 37°C. The cultures were diluted to 2 × 10^5 CFU/mL. The peptides were serially diluted in 10 mM phosphate-buffered solution (PBS) and added to a 96-well plate. The bacterial suspensions were mixed with an equal volume of peptide solution and incubated at 37°C for 18 h. Bacterial growth inhibition was determined by measuring the absorbance at 600 nm using a M200 multiwavelength microplate reader (Infinite M200 PRO, Switzerland). Subsequently, bacterial suspensions were treated with 1 × MIC, 2 × MIC, 3 × MIC, and 4 × MIC concentrations of the AMPs and sampled at 0, 3, 6, 12, 18, and 24 h. The absorbance was measured at 600 nm. The experiment was repeated three times.

E. coli biofilms = test: Antibiofilm activity, crystal violet staining and colony counting; type: cell-based, Escherichia coli; details: different concentrations, 37°C, 24 h, crystal violet OD 595 nm and viable count
Experimental: E. coli (ATCC 25922) and S. aureus (ATCC 25923) were cultured overnight in MHB medium at 37°C. The bacterial suspension was diluted to 100 times and added to a 12-well plate (500 μL/well). Each peptide with a different concentration was added to the corresponding well plate and incubated at 37°C for 24 h. After incubation, 100 μL of culture supernatant was discarded. The biofilm was fixed with 100 μL of 100% methanol for 15 min, then air-dried, then dyed with 0.1% crystal violet (CV) for 30 mins, and washed with distilled water three times. After adding 200 μL of 95% ethanol, the inhibition rate of the biofilm was calculated by measuring the OD value at 595 nm with Infinite M200 PRO, Switzerland. After ultrasonic treatment, the biofilm was fully dispersed into single cells, and the cell suspension was diluted to a suitable concentration for colony counting. All experiments were repeated three times.
The formation of bacterial biofilms in the wounds of DFU patients is the main cause of bacterial resistance. By measuring the antibiofilm ability, the inhibitory and clearing effects of drugs on biofilms can be assessed. In the case of preventing biofilm formation, E. coli and S. aureus were cultured in LB nutrient medium with different concentrations of the novel AMP MYR-DM-ANG1-7 in 24-well plates at 37°C and incubate for 24 h. […]

[2] = tested on: S. aureus (ATCC 25923) infected diabetic wound; test: Diabetic mouse S. aureus-infected full-thickness skin wound model; details: for wound healing rate: 200 μL subcutaneously for 3 days, n = 4
Experimental: BALB/c male mice are from the Experimental Animal Center of Air Force Military Medical University. One group was fed a normal diet, and the other five groups were fed a high-fat diet for 4 weeks and then injected with 35 mg/kg streptozotocin (STZ, 35 mg/kg, Sigma) intraperitoneally for 3 days. […] After intraperitoneal injection of pentobarbital sodium (1%, […]), the dorsal hair of each animal was shaved off, and a circular full-thickness skin wound was created on the back using a 10-mm sterile mouse punch. S. aureus (ATCC 25923) was used to infect the wound site of mice, and a full-thickness wound infection model of mice was established. S. aureus was first resuscitated by operation in a biological ultra-clean table. A single colony was picked and incubated in LB medium at 37°C and 200 rpm. The concentration of the above S. aureus solution was adjusted to 1 × 10^8 CFU/mL to infect the wound of mice. Then, 24 h after S. aureus infection, three drugs, DM (20 μg/mL), ANG1-7 (20 μg/mL), and MYR-DM-ANG1-7 (20 μg/mL), were dissolved in PBS buffer, and 200 μL was injected subcutaneously for 3 days. After drug injection, the wound pus was diluted and coated with plate culture to observe the colony situation. The gross specimen imaging system (GF-7A, China) was used to record the wounds of mice on the same day and every other day after the formation of the wounds. The rubber ring with adhesive backing was used to fix the wound and prevent it from shrinking. ImageJ analysis software (NIH, Bethesda, MD, United States) was used to calculate and analyze the wound area. After 0, 3, 7, 10, and 14 days, the size of the infected wound was evaluated by rubber ring. The wound closure was measured as follows: the wound healing rate (%) = [W0 − Wn]/W0 × 100%, where W0 and Wn represent the wound area on the 0th and nth days, respectively (n = 4).
On the 14th day, the skin tissue was fixed in 4% paraformaldehyde solution, dehydrated, embedded in paraffin, sliced, and stained with hematoxylin–eosin (HE) and Masson. Skin tissue sections on Day 7 were immunofluorescently stained using rabbit anti-mouse CD31 (Cell Signaling Technology) and α-SMA (Cell Signaling Technology), and all stained sections were observed under the slide scanner (Aperio AT 2; Leica Biosystems, Germany).

HUVECs [3] = test: NO secretion, Griess reaction; type: cell-based, human; details: HG + LPS (HG + LPS 0.5 times the original level), n = 3
Experimental: NO levels were determined using the Griess reaction. Briefly, 100 μL of cell culture supernatant was mixed with an equal volume of Griess reagent and incubated at room temperature in the dark for 30 min. The absorbance of the reaction mixture was measured at 540 nm using a microplate reader. Sodium nitrite (NaNO2) was used as a standard to generate a calibration curve, and the NO concentration in the samples was calculated accordingly. All experiments were independently performed in triplicate to ensure data reliability and reproducibility.

E. coli (ATCC 25922) = test: MIC and growth inhibition, broth microdilution; type: cell-based, Escherichia coli
Experimental: as §1

[4] = 4 × MIC (128 μg/mL), OD 600 nm at 0-24 h, repeated three times

Substance: Myristoyl-SSRRKPCKGWLCKLKLRGGYTLIGSATNLNRPTYVRAGGGDRVYIHP (cysteines drawn unpaired) [MYR-DM-ANG1-7]
- TNF-α level (HUVECs [1]): alleviate the decrease
- growth of S. aureus (inhibition curve) (S. aureus (ATCC 25923); [4]): completely inhibit
- Minimum inhibitory concentration (S. aureus (ATCC 25923); S. aureus ATCC 25923, broth microdilution, MHB, 2 × 10^5 CFU/mL, 37°C, 18 h, absorbance 600 nm): 16 µg/mL
- formation of E. coli biofilms (E. coli biofilms): effectively inhibit
- wound healing rate ([2]; 7th day, 20 μg/mL in PBS): 72.77%
- wound healing rate ([2]; 10th day (diabetic control 40.26%), 20 μg/mL): 85.22%
- wound healing rate ([2]; 14th day (diabetic control 52.34%), 20 μg/mL): 95.66%
- pathological changes in the liver and kidneys ([2]; 14th day, H&E): no evidence of organ damage or pathological changes
- blood vessels, CD31 immunofluorescence ([2]; Day 7, compared with the diabetes infection group, p < 0.05): more blood vessels
- epidermis of wound tissue (HE staining) ([2]; Day 14, compared with the diabetes infection group): became thinner
- collagen deposition area (Masson staining) ([2]; Day 14, p < 0.0001): became larger
- fluorescence intensity of α-SMA ([2]; seventh day, vs the diabetes infection group, p < 0.01): significantly higher
- number of bacteria in the wound ([2]; wound pus plated on LB agar after 24 h of treatment, p < 0.0001): decreased
- NO secretion in cell supernatant, increases to (HUVECs [3]): 1.63 times
- growth of E. coli (inhibition curve) (E. coli (ATCC 25922); [4]): completely inhibit
- Minimum inhibitory concentration (E. coli (ATCC 25922); E. coli ATCC 25922, broth microdilution, MHB, 2 × 10^5 CFU/mL, 37°C, 18 h, absorbance 600 nm): 12 µg/mL
- increase of antibacterial efficacy compared to DM (E. coli (ATCC 25922); from MIC values against S. aureus and E. coli): 1.3 fold
